# Values joined by “and” are separate entries in the source; they are usually repeats but may differ in a detail not shown here. Equal entries are not always repeated. Structures can show the parent of a compound that is named as a salt.
# Target: T1, Full length human TNNI3K (hTNNI3K) (Homo sapiens, UniProt Q59H18)
# T1 construct: His-MBP-TEV-Full length human TNNI3K (hTNNI3K); His (N); MBP (N); TEV cleavage site (N); made in house; host or cells: baculovirus system (printed 'Baculokinase system')
# T1 sequence (Q59H18 1-835): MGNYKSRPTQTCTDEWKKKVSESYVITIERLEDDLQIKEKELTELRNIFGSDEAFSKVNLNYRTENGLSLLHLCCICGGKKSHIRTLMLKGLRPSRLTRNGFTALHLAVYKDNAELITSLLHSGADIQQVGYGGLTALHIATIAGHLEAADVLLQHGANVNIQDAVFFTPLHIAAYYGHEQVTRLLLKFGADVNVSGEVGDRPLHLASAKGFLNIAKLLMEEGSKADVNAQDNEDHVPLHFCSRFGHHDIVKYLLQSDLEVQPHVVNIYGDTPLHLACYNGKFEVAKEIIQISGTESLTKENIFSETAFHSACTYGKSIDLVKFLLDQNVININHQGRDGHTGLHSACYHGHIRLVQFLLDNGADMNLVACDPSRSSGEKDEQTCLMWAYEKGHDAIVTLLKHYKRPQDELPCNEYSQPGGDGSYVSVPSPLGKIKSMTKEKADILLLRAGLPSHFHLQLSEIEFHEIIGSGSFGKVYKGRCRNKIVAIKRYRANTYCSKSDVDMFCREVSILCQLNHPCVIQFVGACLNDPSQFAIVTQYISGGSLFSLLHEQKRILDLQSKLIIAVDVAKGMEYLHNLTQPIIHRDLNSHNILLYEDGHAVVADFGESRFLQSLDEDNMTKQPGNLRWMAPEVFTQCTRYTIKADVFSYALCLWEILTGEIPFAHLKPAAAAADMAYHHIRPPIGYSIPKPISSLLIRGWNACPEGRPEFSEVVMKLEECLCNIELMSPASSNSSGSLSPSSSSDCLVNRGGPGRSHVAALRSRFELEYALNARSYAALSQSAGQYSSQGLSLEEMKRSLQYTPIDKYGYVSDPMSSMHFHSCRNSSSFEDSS
# Test: Fluorescent polarization assay of compound inhibition on hTNNI3K ATP binding (Biological Assay Method I)
# Details: displacement of fluorescent ligand from hTNNI3K ATP binding pocket; mean of a minimum of 2 experiments; read-out: pXC50 (the source's name) (converted)
# Source text: Materials: His-MBP-TEV-Full length human TNNI3K (hTNNI3K) was expressed in Baculokinase system and purified from amylase affinity column followed by Superdex200. The fluorescent ligand 5-({[2-({[3-({4-[(5-hydroxy-2-methylphenyl)amino]-2-pyrimidinyl}amino)phenyl]carbonyl}amino)ethyl]amino}carbonyl)-2-(6-hydroxy-3-oxo-3H-xanthen-9-yl)benzoic acid was used. The preparation of this fluorescent ligand is disclosed in U.S. Provisional Patent Application No. 61/237,815 filed Aug. 28, 2009, the disclosure of which is incorporated by reference herein. The other buffer components, including MgCl2 (Catalog Number M1028), Bis-Tris (Catalog Number B7535), DTT (Catalog Number D9779) and Chaps (Catalog Number C3023) were purchased from Sigma-Aldrich.
# Biological Assay Method I:
# A fluorescent polarization assay was used to determine does response of compound inhibition on hTNNI3K ATP binding.
# Solution 1: Ten (10) mL of a 5 nM 5-({[2-({[3-({4-[(5-hydroxy-2-methylphenyl)amino]-2-pyrimidinyl}amino)phenyl]carbonyl}amino)ethyl]amino}carbonyl)-2-(6-hydroxy-3-oxo-3H-xanthen-9-yl)benzoic acid solution (Solution 1) was prepared by mixing 5 μL of 1M DTT and 80 μL of 10% (w/v) Chaps and 5 μL of a 10 μM 5-({[2-({[3-({4-[(5-hydroxy-2-methylphenyl)amino]-2-pyrimidinyl}amino)phenyl]carbonyl}amino) ethyl]amino}carbonyl)-2-(6-hydroxy-3-oxo-3H-xanthen-9-yl)benzoic acid stock solution into 9910 μL buffer (20 mM Tris, 15 mM MgCl2, pH 7.5). (Stock solution: 10 μM solution of 5-({[2-({[3-({4-[(5-hydroxy-2-methylphenyl)amino]-2-pyrimidinyl}amino)phenyl]carbonyl}amino)ethyl]amino}carbonyl)-2-(6-hydroxy-3-oxo-3H-xanthen-9-yl)benzoic acid in 100% DMSO)
# Solution 2 was formed by mixing 53.8 μL of 2.6 μM hTNNI3K with a 6946.2 μL aliquot of Solution 1 (the above 5-({[2-({[3-({4-[(5-hydroxy-2-methylphenyl)amino]-2-pyrimidinyl}amino)phenyl]carbonyl}amino)ethyl]amino}carbonyl)-2-(6-hydroxy-3-oxo-3H-xanthen-9-yl)benzoic acid solution) to make up a 7 mL of mixture of hTNNI3K and 5-({[2-({[3-({4-[(5-hydroxy-2-methylphenyl)amino]-2-pyrimidinyl}amino)phenyl]carbonyl}amino)ethyl]amino}carbonyl)-2-(6-hydroxy-3-oxo-3H-xanthen-9-yl)benzoic acid (Solution 2).
# Fifty (50) nL of inhibitors in DMSO (or DMSO controls) were stamped into a 384-well low volume Greiner black plate, followed by addition of 5 μL of Solution 1 to column 18 and 5 μL Solution 2 to columns 1-17 and 19-24 of the plate. The plate was then spun at 500 rpm for 30 seconds and incubated at room temperature for 60 minutes. After that, the fluorescent polarization was measured on Analyst (ex/em: 485/530 nm, Dichroic: 505). For dose response experiments, normalized data were fit by ABASE/XC50 and pXC50=(log((b−y)/(y−a)))/d−log(x), where x is the compound concentration and y is the % activity at specified compound concentration, a is the minimum % activity, b is the maximum % activity, and d is the Hill slope.
# The pXC50s are averaged to determine a mean value, for a minimum of 2 experiments.
row,SMILES,IC50
1,"CNS(=O)(=O)c1ccc(OC(C)C(F)(F)F)c(Nc2ncnc3cc(OC)cc(OC)c23)c1 (single isomer, unassigned) [Example 82, 3-{[5,7-bis(methyloxy)-4-quinazolinyl]amino}-N-methyl-4-[(2,2,2-trifluoro-1-methylethyl)oxy]benzenesulfonamide hydrochloride]",0.001 to 0.01 µM
2,"CNS(=O)(=O)c1ccc(N(C)C)c(Nc2ncnc3cc(OC)c(OC)cc23)c1 [Example 1, 3-{[6,7-bis(methyloxy)-4-quinazolinyl]amino}-4-(dimethylamino)-N-methylbenzenesulfonamide hydrochloride]",0.01 to 0.1 µM
3,"CNS(=O)(=O)c1ccc(N2CCOCC2)c(Nc2ncnc3cc(OC)c(OC)cc23)c1 [Example 3, 3-{[6,7-bis(methyloxy)-4-quinazolinyl]amino}-N-methyl-4-(4-morpholinyl)benzenesulfonamide trifluoroacetate]",0.01 to 0.1 µM and ~0.0794 µM
4,"CNS(=O)(=O)c1ccc(N(C)C)c(Nc2ncnc3ccc(OC)cc23)c1 [Example 10, 4-(dimethylamino)-N-methyl-3-{[6-(methyloxy)-4-quinazolinyl]amino}benzene sulfonamide trifluoroacetate]",0.01 to 0.1 µM
5,"CNS(=O)(=O)c1ccc(N2CCC(F)(F)CC2)c(Nc2ncnc3cc(OC)c(OC)cc23)c1 [Example 14, 3-{[6,7-bis(methyloxy)-4-quinazolinyl]amino}-4-(4,4-difluoro-1-piperidinyl)-N-methylbenzenesulfonamide trifluoroacetate]",0.01 to 0.1 µM
6,"CNS(=O)(=O)c1ccc(N(C)C)c(Nc2ncnc3cc(OCCOC)c(OCCOC)cc23)c1 [Example 17, 3-[(6,7-bis{[2-(methyloxy)ethyl]oxy}-4-quinazolinyl)amino]-4-(dimethylamino)-N-methylbenzenesulfonamide trifluoroacetate]",0.01 to 0.1 µM
7,"CNS(=O)(=O)c1ccc(N2CCC[C@@H]2C(F)(F)F)c(Nc2ncnc3ccc(Cl)cc23)c1 [Example 22, 3-[(6-chloro-4-quinazolinyl)amino]-N-methyl-4-[(2R)-2-(trifluoromethyl)-1-pyrrolidinyl] benzenesulfonamide trifluoroacetate]",0.01 to 0.1 µM
8,"CNS(=O)(=O)c1ccc(N2C(C)CCC2C)c(Nc2ncnc3cc(OC)c(OC)cc23)c1 (stereo not shown) [Example 27, 3-{[6,7-bis(methyloxy)-4-quinazolinyl]amino}-4-(2,5-dimethyl-1-pyrrolidinyl)-N-methylbenzenesulfonamide trifluoroacetate]",0.001 to 0.01 µM
9,"CNS(=O)(=O)c1ccc(N2C(C)CCC2C)c(Nc2ncnc3ccc(Cl)cc23)c1 (stereo not shown) [Example 28, 3-[(6-chloro-4-quinazolinyl)amino]-4-(2,5-dimethyl-1-pyrrolidinyl)-N-methylbenzenesulfonamide trifluoroacetate]",0.01 to 0.1 µM
10,"CNS(=O)(=O)c1cccc(Nc2ncnc3cc(OC)cc(OC)c23)c1 [Example 30, 3-{[5,7-bis(methyloxy)-4-quinazolinyl]amino}-N-methylbenzenesulfonamide hydrochloride]",0.01 to 0.1 µM

# More lines, now with the values ahead:
row,IC50,SMILES
1,0.01 to 0.1 µM,"CCN(C)c1ccc(S(=O)(=O)NC)cc1Nc1ncnc2cc(OC)c(OC)cc12 [Example 4, 3-{[6,7-bis(methyloxy)-4-quinazolinyl]amino}-4-[ethyl(methyl)amino]-N-methylbenzenesulfonamide]"
2,0.01 to 0.1 µM,"CNS(=O)(=O)c1ccc(OC(C)C)c(Nc2ncnc3cc(OC)c(OC)cc23)c1 [Example 5, 3-{[6,7-bis(methyloxy)-4-quinazolinyl]amino}-N-methyl-4-[(1-methylethyl)oxy]benzenesulfonamide]"
3,0.01 to 0.1 µM,"CNS(=O)(=O)c1ccc(OCC(F)(F)F)c(Nc2ncnc3cc(OC)c(OC)cc23)c1 [Example 11, 3-{[6,7-bis(methyloxy)-4-quinazolinyl]amino}-N-methyl-4-[(2,2,2-trifluoroethyl)oxy]benzenesulfonamide hydrochloride]"
4,0.01 to 0.1 µM,"CNS(=O)(=O)c1ccc(N(C)C)c(Nc2ncnc3cc(OCCCCl)ccc23)c1 [Example 16, 3-({7-[(3-chloropropyl)oxy]-4-quinazolinyl}amino)-4-(dimethylamino)-N-methylbenzenesulfonamide]"
5,0.01 to 0.1 µM,"CNS(=O)(=O)c1ccc(OC)c(Nc2ncnc3cc(OCCOC)c(OCCOC)cc23)c1 [Example 18, 3-[(6,7-bis{[2-(methyloxy)ethyl]oxy}-4-quinazolinyl)amino]-N-methyl-4-(methyloxy) benzenesulfonamide hydrochloride]"
6,0.01 to 0.1 µM,"CNS(=O)(=O)c1ccc(OCC(F)(F)F)c(Nc2ncnc3cc(OCCOC)c(OCCOC)cc23)c1 [Example 19, 3-[(6,7-bis{[2-(methyloxy)ethyl]oxy}-4-quinazolinyl)amino]-N-methyl-4-[(2,2,2-trifluoroethyl)oxy] benzenesulfonamide]"
7,0.01 to 0.1 µM,"CNS(=O)(=O)c1ccc(SC)c(Nc2ncnc3cc(OCCOC)c(OCCOC)cc23)c1 [Example 20, 3-[(6,7-bis{[2-(methyloxy)ethyl]oxy}-4-quinazolinyl)amino]-N-methyl-4-(methylthio) benzenesulfonamide]"
8,0.001 to 0.01 µM,"CNS(=O)(=O)c1ccc(N2CCC[C@@H]2C(F)(F)F)c(Nc2ncnc3cc(OC)c(OC)cc23)c1 [Example 21, 3-{[6,7-bis(methyloxy)-4-quinazolinyl]amino}-N-methyl-4-[(2R)-2-(trifluoromethyl)-1-pyrrolidinyl] benzenesulfonamide trifluoroacetate]"
9,0.001 to 0.01 µM,"CNS(=O)(=O)c1ccc(N2CCCCC2)c(Nc2ncnc3cc(OC)c(OC)cc23)c1 [Example 25, 3-{[6,7-bis(methyloxy)-4-quinazolinyl]amino}-N-methyl-4-(1-piperidinyl) benzenesulfonamide trifluoroacetate]"
10,0.01 to 0.1 µM,"CNS(=O)(=O)c1ccc(N2CCCCC2)c(Nc2ncnc3ccc(Cl)cc23)c1 [Example 26, 3-[(6-chloro-4-quinazolinyl)amino]-N-methyl-4-(1-piperidinyl) benzenesulfonamide trifluoroacetate]"
11,0.001 to 0.01 µM,"CNS(=O)(=O)c1ccc(OCC(F)(F)F)c(Nc2ncnc3cc(OC)cc(OC)c23)c1 [Example 31, 3-{[5,7-bis(methyloxy)-4-quinazolinyl]amino}-N-methyl-4-[(2,2,2-trifluoroethyl)oxy]benzenesulfonamide hydrochloride]"
12,0.001 to 0.01 µM,"CNS(=O)(=O)c1ccc(N(C)C)c(Nc2ncnc3cc(OC)cc(OC)c23)c1 [Example 32, 3-{[5,7-bis(methyloxy)-4-quinazolinyl]amino}-4-(dimethylamino)-N-methylbenzenesulfonamide]"
